Experimental data from patent publication US5763596A, “C-4' modified adenosine kinase inhibitors” (Metabasis Therapeutics, Inc., priority 1996, dated 1998).

Tests used:
male Lewis rats = experiment: adjuvant arthritis; assay type: in vivo, rat
Experimental: Heat-killed Mycobacterium butyricum was ground to a find powder and suspended in heavy mineral oil at 10 mg/ml. The suspension was injected subcutaneously into the base of the tail of male Lewis rats at 0.1 ml per rat. This immunization procedure induces an agressive arthritis that is apparent at day 10-12 and rapidly worsens. The volumes of the hind paws were measured before immunization and on days 12, 15 and 20 after immunization. The baseline paw volume was subtracted from the arthritic volumes to yield paw swelling. AK inhibitors were given by daily oral gavage beginning on day 4 after immunization, using polyethylene glycol-400 as the vehicle. Control rats received vehicle only. Percent inhibition was calculated based on paw swelling in AK inhibitor treated group compared to vehicle treated group, and is reported in Table 11.

adenosine kinase = adenosine kinase (AK) inhibition; assay type: biochemical, pig heart or recombinant human; conditions: 0.5 μM [U-14C] adenosine, pH 7.0, 20 minutes
Experimental: Adenosine kinase activity was measured essentially as described by Yamada et al. (Yamada, Y., Goto, H., Ogasawara, N. (1988) Biochim. Biophys. Acta 660, 36-43.) with a few minor modifications. […] Natl. Acad. Sci. […] The reactions were incubated for 20 minutes at […] The assay was quenched upon spotting 30 μL aliquots onto 2 cm^2 pieces of Whatman DE81 anion exchange paper. The papersquares were washed for 3 minutes in 6 L distilled/deionized water to remove the unreacted adenosine. The washed squares were rinsed in 95% ethanol and dried in an oven at 100° C. for 10 minutes. The amount of ^14 C-AMP was quantified by scintillation counting.

Rats = experiment: anti-inflammatory activity, carrageenan paw; assay type: in vivo, rat; conditions: 10 mg/kg, swelling after 3 hours
Experimental: Carrageenan (Type λ) was suspended in sterile PBS at 1% (w/v), autoclaved for 30 minutes, and stored at room temperature. Rats were pretreated with vehicle or AK inhibitor (10 mg/kg) by oral gavage or i.p. administration and the volume of the left hind paw was measured using a water displacement plethysmometer (Stoelting Co., Wood Dale, Ill.). One hour after oral treatment or 30 minutes after i.p. treatment, the rats were briefly anaesthetized, and 0.1 ml of the carrageenan solution was injected subcutaneously into the planar surface of the left hind paw. The ensuing paw swelling was measured by plethysmometry after 3 hours. The paw volume in milliliters was subtracted from the pre-injection paw volume. Data are presented in Table 8 as the percent inhibition of paw swelling in AK inhibitor treated animals, compared to vehicle treated control animals.

Rats (male, Simonsen) = experiment: formalin paw model; assay type: in vivo, rat; design: concentration or dose not given beside the values; conditions: oral, 90 min before formalin
Experimental: In this assay, injection of formalin, an irritant, into the hindpaw of rats typically evokes a biphasic response of pain-related behaviors. Phase 1 of the response which is brief, lasting approximately 0-5 min post-injection,is followed by a more prolonged phase 2, lasting approximately 10-80 min post-injection. Phase 1 behavior is thought to be a direct effect of the irritant on nociceptors at the injection site while phase 2 behavior is thought to include a hyperalgesic component mediated by sensitization of neuronal elements within the spinal cord. Studies from other laboratories have found the first portion of Phase 2 (sometimes referred to as Phase 2a) to be most responsive to pharmacological manipulation.
Rats (male, Simonsen) weighing between 100-200 g, are used in the present experiments. For screening purposes drugs are administered orally 90 min prior to initiation of formalin test. At designated intervals the animals in groups of 4 are placed individually in a small animal restrainer with the right hindpaw accessible through a hole in the bottom of the restrainer. The formalin paw assay is initiated by the injection using a 30G needle of 50 μl of a 5% formalin solution in saline into the right plantar surface of each hindpaw. The rat is then immediately placed in a separate plexiglass box and scoring (described below) of the animal's behavior is begun at 1.7 min after formalin injection. The instantaneous behavior of each animal in a group of 4 was observed and assigned a score once in each 20 second interval. This sequence is repeated over a 30 min period. The scoring protocol is an adaptation of the method published by Dubuisson and Dennis (Pain 4:161-174, 1977) which assigns a score from 0-3 as follows:
0--no discernible favoring of injected paw, weight evenly distributed
1--injected paw is favored, rests lightly on floor
2--injected paw is elevated
3--injected paw is vigorously licked, bitten or shake
Scores are continuously recorded directly onto an Excel spreadsheet. […] 2) the total number of incidences specifically of licking/biting behavior is summed over Phase 2 and mean values determined from 6 different animals with results expressed as % inhibition compared to vehicle control.

male SA rats = experiment: anticonvulsant activity, maximal electroshock (MES) model; assay type: in vivo; conditions: Rattus norvegicus, ip, 1 h before MES; >5 / <5: fewer / more than 50% of animals inhibited at 5 mg/kg in initial screen
Experimental: The anticonvulsant activity of the tested compounds was evaluated in male SA rats (100-150 g, Simonsen) using the maximal electroshock (MES) model described in Swinyard et al., Antiepileptic Drugs, 3d Ed. at 85-102 (Levy, et al., eds.), NY: Raven Press (1989). The rats were maintained on a 12/12 light/dark cycle in temperature controlled facilities with free access to food and water. For p.o. administration, the animals are fasted overnight, prior to the experiment. One hour prior to seizure testing, the animals were injected interperitoneally (ip) or orally (per os, po) with one of various doses of test compound dissolved in DMSO or PEG 400.
Maximal electroshock seizures (MES) were induced by administering a 150 mA, 60 Hz current for 0.2 seconds via corneal electrodes using a Wahlquist Model H stimulator. […] This endpoint was expressed as the percentage of animals in which the response was inhibited. Typically, compounds were screened initially at one hour following a dose of 5 mg/kg ip. […] The results for exemplary compounds of the invention are set forth in Table 8, expressed as ED50 values.

Female SA rats = experiment: liver toxicity, serum SGOT, SGPT and total bilirubin; assay type: in vivo, rat; design: unit not given here; conditions: 2 x 37.5 μmol/kg i.v. infusion (total 75 μmol/kg), 12 h after second dose
Experimental: Female SA rats (150-200 g) were anesthetized with halothane and cannulated via the internal jugular vein. The animals were allowed to recover for 3 days. […] Twelve hours later, an additional 37.5 μmol kg was infused over 40 minutes (total dose=75 μmol/kg). Twelve hours after the second dose, the animals were anesthetized with halothane and exsanguinated through the descending aorta. Serum was prepared and liver enzymes (serum glutamic-oxaloacetic transaminase (SGOT), serum glutamic-pyruvic transaminase (SGPT)) and total bilirubin in the serum samples were determined by a commercial laboratory.

[1] = 10 mg/kg daily oral gavage from day 4
[2] = 20 mg/kg daily oral gavage from day 4

IC50 (adenosine kinase): 28 nM
SMILES: O[C@@H]1[C@H](O)CO[C@H]1n1cc(-c2ccccc2)c2c(Nc3ccc(F)cc3)ncnc21 [compound 28]
% inh at day 12 (paw swelling) (male Lewis rats; [1]): 29 ± 7%
% inh at day 15 (paw swelling) (male Lewis rats; [1]): 22 ± 4%
% inh at day 12 (paw swelling) (male Lewis rats; [2]): 52 ± 23%
% inh at day 15 (paw swelling) (male Lewis rats; [2]): 52 ± 22%
% inh at day 20 (paw swelling) (male Lewis rats; [2]): 40 ± 8%
Carrageenan Paw (% inh) i.p. (Rats; i.p., 30 min before carrageenan): 52%
Carrageenan Paw (% inh) p.o. (Rats; p.o., 1 h before carrageenan): 25%
% Inhibition Phase 1 Composite score (Rats (male, Simonsen); 1.7-5 min post-formalin): 9.2%
% Inhibition Phase 2 Composite score (Rats (male, Simonsen); 10.3-30 min post-formalin): 37.4%
% Inhibition Phase 2. Licking/biting (Rats (male, Simonsen); Phase 2): 76.1%
ED50 at 5 mg/kg (male SA rats): < 5 mg/kg
average serum Total Bilirubin (Female SA rats): 0.07
average serum content of SGOT (Female SA rats): 61
average serum content of SGPT (Female SA rats): 23
